Five compounds from PubChem BioAssay AID1259407 (Chemical Carcinogenesis Research Information System (CCRIS), 2018) can be followed below.

The structures appear in SMILES notation. The source made the active and inactive calls. No rule for the calls is given here.

This series has as its system CCRIS mutagenicity, Ames/micronucleus/aberration tests. The series is described as follows: CCRIS mutagenicity studies. The conditions noted are these: Test System: AMES SALMONELLA TYPHIMURIUM
[1] abbreviates: Strain/Indicator: TA100, Metabolic Activation: NONE, Method: PREINCUBATION
[2] abbreviates: Strain/Indicator: TA98, Metabolic Activation: NONE, Method: PREINCUBATION
The mark [3] stands for this setting: Strain/Indicator: TA100, Metabolic Activation: HAMSTER, LIVER, S-9, AROCLOR 1254 (10%), Method: PREINCUBATION
The mark [4] stands for this setting: Strain/Indicator: TA1535, Metabolic Activation: NONE, Method: PREINCUBATION

With `CCN(CC)c1cc(NC(C)=O)c(N=Nc2c(Br)cc([N+](=O)[O-])cc2[N+](=O)[O-])cc1OC`, the mutagenic call (Strain/Indicator: TA98, Metabolic Activation: NONE, Method: STANDARD PLATE) was “active; positive”; the mutagenic call (Strain/Indicator: TA98, Metabolic Activation: RAT, LIVER, S-9, AROCLOR 1254, Method: STANDARD PLATE) is “active; positive”; the mutagenic call (Strain/Indicator: TA98DNP6, Metabolic Activation: NONE, Method: STANDARD PLATE) was “inactive; negative”; the mutagenic call (Strain/Indicator: TA98DNP6, Metabolic Activation: RAT, LIVER, S-9, AROCLOR 1254, Method: STANDARD PLATE) was “active; positive”; the mutagenic call (Strain/Indicator: TA98NR, Metabolic Activation: NONE, Method: STANDARD PLATE) is “inactive; negative”; the mutagenic call (Strain/Indicator: TA98NR, Metabolic Activation: RAT, LIVER, S-9, AROCLOR 1254, Method: STANDARD PLATE) is “active; positive”. Moreover, the mutagenic call reads like this: (Strain/Indicator: TA100, Metabolic Activation: NONE, Method: STANDARD PLATE) “active; positive”; (Strain/Indicator: TA100, Metabolic Activation: RAT, LIVER, S-9, AROCLOR 1254, Method: STANDARD PLATE) “active; positive”; (Strain/Indicator: TA1535, Metabolic Activation: NONE, Method: STANDARD PLATE) “inactive; negative”; (Strain/Indicator: TA1535, Metabolic Activation: RAT, LIVER, S-9, AROCLOR 1254, Method: STANDARD PLATE) “inactive; negative”; (Strain/Indicator: TA1537, Metabolic Activation: NONE, Method: STANDARD PLATE) “active; positive”; (Strain/Indicator: TA1537, Metabolic Activation: RAT, LIVER, S-9, AROCLOR 1254, Method: STANDARD PLATE) “active; positive”. For the same compound, the mutagenic call reads like this: (Strain/Indicator: TA1538, Metabolic Activation: NONE, Method: STANDARD PLATE) “active; positive”; (Strain/Indicator: TA1538, Metabolic Activation: RAT, LIVER, S-9, AROCLOR 1254, Method: STANDARD PLATE) “active; positive”; (Strain/Indicator: YG1021, Metabolic Activation: NONE, Method: STANDARD PLATE) “active; positive”; (Strain/Indicator: YG1021, Metabolic Activation: RAT, LIVER, S-9, AROCLOR 1254, Method: STANDARD PLATE) “active; positive”; (Strain/Indicator: YG1024, Metabolic Activation: NONE, Method: STANDARD PLATE) “active; positive”; (Strain/Indicator: YG1024, Metabolic Activation: RAT, LIVER, S-9, AROCLOR 1254, Method: STANDARD PLATE) “active; positive”. The mutagenic call (Strain/Indicator: YG1041, Metabolic Activation: NONE, Method: STANDARD PLATE) was “active; positive” and the mutagenic call (Strain/Indicator: YG1041, Metabolic Activation: RAT, LIVER, S-9, AROCLOR 1254, Method: STANDARD PLATE) is “active; positive”.
With `CC/C=C/C=C/C=C/C=C/C=C/OCC(O)c1ccccc1` (stereo unspecified), the mutagenic call under setting [1] is “active; positive”.
In the case of `CC(=O)Nc1ccc(C)cc1`, the mutagenic call is “inactive; negative” (Strain/Indicator: TA97, Metabolic Activation: HAMSTER, LIVER, S-9, AROCLOR 1254 (10 OR 30%), Method: PREINCUBATION); “inactive; negative” (Strain/Indicator: TA97, Metabolic Activation: NONE, Method: PREINCUBATION); “inactive; negative” (Strain/Indicator: TA97, Metabolic Activation: RAT, LIVER, S-9, AROCLOR 1254 (10 OR 30%), Method: PREINCUBATION); “inactive; negative” (Strain/Indicator: TA98, Metabolic Activation: HAMSTER, LIVER, S-9, AROCLOR 1254 (10 OR 30%), Method: PREINCUBATION); “inactive; negative” under setting [2]; “inactive; negative” (Strain/Indicator: TA98, Metabolic Activation: RAT, LIVER, S-9, AROCLOR 1254 (10 OR 30%), Method: PREINCUBATION). The mutagenic call runs as follows: under setting [3], “inactive; negative”; (Strain/Indicator: TA100, Metabolic Activation: HAMSTER, LIVER, S-9, AROCLOR 1254 (30%), Method: PREINCUBATION) “inactive; negative”; under setting [1], “inactive; negative”; (Strain/Indicator: TA100, Metabolic Activation: RAT, LIVER, S-9, AROCLOR 1254 (10 OR 30%), Method: PREINCUBATION) “inactive; negative”; (Strain/Indicator: TA1535, Metabolic Activation: HAMSTER, LIVER, S-9, AROCLOR 1254 (10 OR 30%), Method: PREINCUBATION) “inactive; negative”; under setting [4], “inactive; negative”. For the setting “Strain/Indicator: TA1535, Metabolic Activation: RAT, LIVER, S-9, AROCLOR 1254 (10 OR 30%), Method: PREINCUBATION”, the mutagenic call was “inactive; negative”.
Regarding `CCCCCCCCCCCCCOC(=O)c1ccccc1C(=O)OCCCCCCCCCCCCC`, the mutagenic call is, setting by setting: (Strain/Indicator: TA98, Metabolic Activation: HAMSTER, LIVER, S-9, AROCLOR 1254 (10%), Method: PREINCUBATION) “inactive; negative”; under setting [2], “inactive; negative”; (Strain/Indicator: TA98, Metabolic Activation: RAT, LIVER, S-9, AROCLOR 1254 (10%), Method: PREINCUBATION) “inactive; negative”; under setting [3], “inactive; negative”; under setting [1], “inactive; negative”; (Strain/Indicator: TA100, Metabolic Activation: RAT, LIVER, S-9, AROCLOR 1254 (10%), Method: PREINCUBATION) “inactive; negative”. Further, the mutagenic call by setting is: (Strain/Indicator: TA1535, Metabolic Activation: HAMSTER, LIVER, S-9, AROCLOR 1254 (10%), Method: PREINCUBATION) “inactive; negative”; under setting [4], “inactive; negative”; (Strain/Indicator: TA1535, Metabolic Activation: RAT, LIVER, S-9, AROCLOR 1254 (10%), Method: PREINCUBATION) “inactive; negative”; (Strain/Indicator: TA1537, Metabolic Activation: HAMSTER, LIVER, S-9, AROCLOR 1254 (10%), Method: PREINCUBATION) “inactive; negative”; (Strain/Indicator: TA1537, Metabolic Activation: NONE, Method: PREINCUBATION) “inactive; negative”; (Strain/Indicator: TA1537, Metabolic Activation: RAT, LIVER, S-9, AROCLOR 1254 (10%), Method: PREINCUBATION) “inactive; negative”.
For `Cc1cnc2cc(CO)c3c(nc(N)n3C)c2n1`, the mutagenic call is “active; positive” (Strain/Indicator: TA98, Metabolic Activation: S-9); “active; positive” (Strain/Indicator: TA98, Metabolic Activation: S-9, Method: PREINCUBATION); “active; positive” (Strain/Indicator: TA100, Metabolic Activation: S-9, Method: PREINCUBATION); “active; positive” (Strain/Indicator: YG1024, Metabolic Activation: S-9); “active; positive” (Strain/Indicator: YG1024, Metabolic Activation: S-9, Method: PREINCUBATION).
